Measurements from US9937151B2, “Carbapenem antibacterials with gram-negative activity” (priority 2010, dated 2018).
In brackets after ≈: the same amount, converted by molar mass.

Tested on: G(−) bacterial strains
Assay: Dilution antimicrobial susceptibility tests (MIC, NCCLS agar dilution / broth dilution)
Assay type: cell-based, Gram-negative organisms
Conditions: unit assumed
Outline: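 Agar dilution on Mueller-Hinton agar at 10^4 CFU/spot and broth dilution at 5×10^5 CFU/well, per NCCLS M7-A5. Streptococci tested on Mueller-Hinton agar with 5% sheep blood. MIC taken as minimum inhibitory concentration; ATCC control strains run alongside.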

[1] = strain #1 Acinetobacter calcoaceticus
[2] = strain #2 Acinetobacter baumannii, Cf-R, Ci-R
[3] = strain #3 Acinetobacter baumannii, Cf-R, Ci-R, Mp-I
[4] = strain #4 Acinetobacter baumannii, Cf-R, Imp-I, CBPase
[5] = strain #7 Enterobacter aerogenes
[6] = strain #8 Enterobacter cloacae, Cf-R, B+
[7] = strain #9 Enterobacter cloacae, Cf-R
[8] = strain #10 Escherichia coli, Ci-R
[9] = strain #11 Escherichia coli, Ci-R, AmpC
[10] = strain #15 Klebsiella pneumoniae
[11] = strain #16 Moraxella catarrhalis
[12] = strain #21 Providencia rettgeri
[13] = strain #22 Salmonella typhimurium
[14] = strain #25 Shigella dysenteriae
[15] = strain #28 Stenotrophomonas maltophilia
[16] = strain #29 Pseudomonas aeruginosa
[17] = strain #30 Pseudomonas aeruginosa
[18] = strain #31 Pseudomonas aeruginosa, Ofx-R
[19] = strain #32 Pseudomonas aeruginosa, Cf-R
[20] = strain #33 Pseudomonas aeruginosa, Ci-R
[21] = strain #34 Pseudomonas aeruginosa, Gen-R
[22] = strain #35 Pseudomonas aeruginosa, Ip-R
[23] = strain #36 Pseudomonas aeruginosa, Cf-R, Ci-R, Mp-R

SMILES	MIC [1] [µg/mL]	MIC [2] [µg/mL]	MIC [3] [µg/mL]	MIC [4] [µg/mL]	MIC (strain #5 Citrobacter diversus) [µg/mL]	MIC (strain #6 Citrobacter freundii) [µg/mL]	MIC [5] [µg/mL]	MIC [6] [µg/mL]	MIC [7] [µg/mL]	MIC [8] [µg/mL]	MIC [9] [µg/mL]	MIC (strain #12 Escherichia coli) [µg/mL]	MIC (strain #13 Escherichia coli) [µg/mL]	MIC (strain #14 Klebsiella oxytoca) [µg/mL]	MIC [10] [µg/mL]	MIC [11] [µg/mL]	MIC (strain #17 Morganella Morganii) [µg/mL]	MIC (strain #18 Morganella Morganii) [µg/mL]	MIC (strain #19 Proteus vulgaris) [µg/mL]	MIC (strain #20 Proteus mirabilis) [µg/mL]	further results
C[C@@H](O)C1C(=O)N2C(C(=O)O)=C(CN3CC[C@H](NC(=N)NS(C)(=O)=O)C3)[C@H](C)C12 (stereo partly drawn) [Compound 106]	4 (≈ 9.31 µM)	2 (≈ 4.66 µM)	8 (≈ 18.6 µM)	2 (≈ 4.66 µM)	1 (≈ 2.33 µM)	1 (≈ 2.33 µM)	2 (≈ 4.66 µM)	1 (≈ 2.33 µM)	2 (≈ 4.66 µM)	1 (≈ 2.33 µM)	0.5 (≈ 1.16 µM)	1 (≈ 2.33 µM)	1 (≈ 2.33 µM)	2 (≈ 4.66 µM)	1 (≈ 2.33 µM)	≤ 0.008	4 (≈ 9.31 µM)	4 (≈ 9.31 µM)	2 (≈ 4.66 µM)	1 (≈ 2.33 µM)	MIC [12]: 4 µg/mL (≈ 9.31 µM); MIC [13]: 1 µg/mL (≈ 2.33 µM); MIC (strain #23 Serratia marcescens): 2 µg/mL (≈ 4.66 µM); MIC (strain #24 Serratia marcescens): 2 µg/mL (≈ 4.66 µM); MIC [14]: 1 µg/mL (≈ 2.33 µM); MIC (strain #26 Shigella sonnei): 1 µg/mL (≈ 2.33 µM); MIC (strain #27 Shigella flexneri): 0.5 µg/mL (≈ 1.16 µM); MIC [15]: 1 µg/mL (≈ 2.33 µM); MIC [16]: 8 µg/mL (≈ 18.6 µM); MIC [17]: 8 µg/mL (≈ 18.6 µM); MIC [18]: 4 µg/mL (≈ 9.31 µM); MIC [19]: 8 µg/mL (≈ 18.6 µM); MIC [20]: 8 µg/mL (≈ 18.6 µM); MIC [21]: 8 µg/mL (≈ 18.6 µM); MIC [22]: 16 µg/mL (≈ 37.3 µM); MIC [23]: > 32 µg/mL
CC(=O)NC(=N)N[C@H]1CCN(CC2=C(C(=O)O)N3C(=O)C([C@@H](C)O)C3[C@H]2C)C1 (stereo partly drawn) [Compound 111]	1 (≈ 2.54 µM)	4 (≈ 10.2 µM)	4 (≈ 10.2 µM)	4 (≈ 10.2 µM)	0.5 (≈ 1.27 µM)	0.5 (≈ 1.27 µM)	2 (≈ 5.08 µM)	1 (≈ 2.54 µM)	1 (≈ 2.54 µM)	0.5 (≈ 1.27 µM)	0.5 (≈ 1.27 µM)	0.5 (≈ 1.27 µM)	0.5 (≈ 1.27 µM)	1 (≈ 2.54 µM)	1 (≈ 2.54 µM)	≤ 0.008	4 (≈ 10.2 µM)	2 (≈ 5.08 µM)	2 (≈ 5.08 µM)	0.5 (≈ 1.27 µM)	MIC [12]: 2 µg/mL (≈ 5.08 µM); MIC [13]: 0.5 µg/mL (≈ 1.27 µM); MIC (strain #23 Serratia marcescens): 1 µg/mL (≈ 2.54 µM); MIC (strain #24 Serratia marcescens): 2 µg/mL (≈ 5.08 µM); MIC [14]: 0.5 µg/mL (≈ 1.27 µM); MIC (strain #26 Shigella sonnei): 0.5 µg/mL (≈ 1.27 µM); MIC (strain #27 Shigella flexneri): 0.5 µg/mL (≈ 1.27 µM); MIC [15]: 0.5 µg/mL (≈ 1.27 µM); MIC [16]: 4 µg/mL (≈ 10.2 µM); MIC [17]: 4 µg/mL (≈ 10.2 µM); MIC [18]: 1 µg/mL (≈ 2.54 µM); MIC [19]: 4 µg/mL (≈ 10.2 µM); MIC [20]: 8 µg/mL (≈ 20.3 µM); MIC [21]: 4 µg/mL (≈ 10.2 µM); MIC [22]: 8 µg/mL (≈ 20.3 µM); MIC [23]: > 32 µg/mL
C[C@@H](O)C1C(=O)N2C(C(=O)O)=C(CN3CC[C@@H](C(N)=O)C3)[C@H](C)C12 (stereo partly drawn) [Compound 115]	0.5 (≈ 1.48 µM)	1 (≈ 2.96 µM)	2 (≈ 5.93 µM)	1 (≈ 2.96 µM)	0.25 (≈ 0.741 µM)	0.25 (≈ 0.741 µM)	1 (≈ 2.96 µM)	0.13 (≈ 0.385 µM)	0.25 (≈ 0.741 µM)	0.25 (≈ 0.741 µM)	0.25 (≈ 0.741 µM)	0.25 (≈ 0.741 µM)	0.25 (≈ 0.741 µM)	0.25 (≈ 0.741 µM)	0.5 (≈ 1.48 µM)	≤ 0.008	2 (≈ 5.93 µM)	2 (≈ 5.93 µM)	1 (≈ 2.96 µM)	0.25 (≈ 0.741 µM)	MIC [12]: 1 µg/mL (≈ 2.96 µM); MIC [13]: 0.25 µg/mL (≈ 0.741 µM); MIC (strain #23 Serratia marcescens): 0.5 µg/mL (≈ 1.48 µM); MIC (strain #24 Serratia marcescens): 1 µg/mL (≈ 2.96 µM); MIC [14]: 0.25 µg/mL (≈ 0.741 µM); MIC (strain #26 Shigella sonnei): 0.25 µg/mL (≈ 0.741 µM); MIC (strain #27 Shigella flexneri): 0.25 µg/mL (≈ 0.741 µM); MIC [15]: 0.25 µg/mL (≈ 0.741 µM); MIC [16]: 4 µg/mL (≈ 11.9 µM); MIC [17]: 4 µg/mL (≈ 11.9 µM); MIC [18]: 1 µg/mL (≈ 2.96 µM); MIC [19]: 4 µg/mL (≈ 11.9 µM); MIC [20]: 8 µg/mL (≈ 23.7 µM); MIC [21]: 8 µg/mL (≈ 23.7 µM); MIC [22]: 8 µg/mL (≈ 23.7 µM); MIC [23]: > 32 µg/mL
